Experiments:
[1] = target: Neutrophil collagenase (Homo sapiens, UniProt P22894); experiment: Inhibition of MMP8 (unknown origin)
[2] = target: Stromelysin-1 (Homo sapiens, UniProt P08254); experiment: Inhibition of MMP3 (unknown origin)
[3] = target: T1, Interstitial collagenase (Homo sapiens, UniProt P03956); experiment: Inhibition of MMP1 (unknown origin)
T1 sequence (P03956 whole entry): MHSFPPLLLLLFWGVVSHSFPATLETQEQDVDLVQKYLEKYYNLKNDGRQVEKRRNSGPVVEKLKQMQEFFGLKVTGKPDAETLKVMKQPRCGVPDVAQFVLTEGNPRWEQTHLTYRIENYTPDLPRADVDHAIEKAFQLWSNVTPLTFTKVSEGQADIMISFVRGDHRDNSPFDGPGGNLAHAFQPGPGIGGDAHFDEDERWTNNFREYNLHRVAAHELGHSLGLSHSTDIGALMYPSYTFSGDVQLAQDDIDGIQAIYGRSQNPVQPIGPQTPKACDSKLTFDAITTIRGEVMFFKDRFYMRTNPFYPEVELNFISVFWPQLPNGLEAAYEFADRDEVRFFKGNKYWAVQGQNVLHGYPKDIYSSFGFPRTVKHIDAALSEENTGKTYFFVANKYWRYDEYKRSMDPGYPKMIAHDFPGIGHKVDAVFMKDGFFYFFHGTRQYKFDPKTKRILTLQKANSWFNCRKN

[4] = target: 72 kDa type IV collagenase (Homo sapiens, UniProt P08253); experiment: Inhibition of MMP2 (unknown origin)
72 kDa type IV collagenase, sequence (P08253 whole entry): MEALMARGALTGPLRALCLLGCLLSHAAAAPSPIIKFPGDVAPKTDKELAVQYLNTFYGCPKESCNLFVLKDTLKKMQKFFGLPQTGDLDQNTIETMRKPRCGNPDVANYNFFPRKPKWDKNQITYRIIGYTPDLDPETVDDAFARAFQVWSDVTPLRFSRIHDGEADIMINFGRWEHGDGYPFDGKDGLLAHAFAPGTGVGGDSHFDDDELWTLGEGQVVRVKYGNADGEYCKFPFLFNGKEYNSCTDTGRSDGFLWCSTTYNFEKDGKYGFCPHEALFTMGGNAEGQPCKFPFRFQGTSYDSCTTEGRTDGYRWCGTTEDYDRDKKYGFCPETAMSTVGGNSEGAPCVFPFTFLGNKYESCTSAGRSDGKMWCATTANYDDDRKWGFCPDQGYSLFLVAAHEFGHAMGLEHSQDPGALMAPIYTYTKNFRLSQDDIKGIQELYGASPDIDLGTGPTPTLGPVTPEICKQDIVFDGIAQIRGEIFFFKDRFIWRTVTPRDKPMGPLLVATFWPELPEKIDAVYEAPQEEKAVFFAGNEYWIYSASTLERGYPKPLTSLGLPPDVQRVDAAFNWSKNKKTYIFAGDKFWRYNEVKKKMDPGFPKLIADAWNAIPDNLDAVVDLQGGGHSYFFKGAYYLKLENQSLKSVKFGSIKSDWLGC

[5] = target: Matrix metalloproteinase-9 (Homo sapiens, UniProt P14780); experiment: Inhibition of MMP9 (unknown origin)
Matrix metalloproteinase-9, sequence (P14780 whole entry): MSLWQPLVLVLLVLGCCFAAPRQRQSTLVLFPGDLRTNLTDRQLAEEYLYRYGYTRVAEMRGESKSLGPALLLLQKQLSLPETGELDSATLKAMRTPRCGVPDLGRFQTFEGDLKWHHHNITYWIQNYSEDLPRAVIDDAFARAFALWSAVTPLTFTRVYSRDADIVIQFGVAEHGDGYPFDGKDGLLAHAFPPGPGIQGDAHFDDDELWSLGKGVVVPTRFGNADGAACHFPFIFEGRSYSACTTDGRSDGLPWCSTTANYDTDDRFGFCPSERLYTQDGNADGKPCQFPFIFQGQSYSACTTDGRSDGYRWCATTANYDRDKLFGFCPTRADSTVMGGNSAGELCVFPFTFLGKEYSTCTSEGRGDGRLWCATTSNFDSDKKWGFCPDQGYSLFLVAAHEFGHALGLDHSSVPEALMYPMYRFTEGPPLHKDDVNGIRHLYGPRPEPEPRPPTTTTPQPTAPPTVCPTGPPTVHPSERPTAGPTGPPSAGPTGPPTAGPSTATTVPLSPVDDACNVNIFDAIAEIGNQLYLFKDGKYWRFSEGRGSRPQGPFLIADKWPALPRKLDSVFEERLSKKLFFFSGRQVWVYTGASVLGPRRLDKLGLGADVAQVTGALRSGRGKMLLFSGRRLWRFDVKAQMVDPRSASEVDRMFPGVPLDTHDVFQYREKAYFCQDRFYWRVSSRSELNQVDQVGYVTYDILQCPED

[6] = target: T2, Matrilysin (Homo sapiens, UniProt P09237); experiment: Inhibition of MMP7 (unknown origin)
T2 sequence (P09237 whole entry): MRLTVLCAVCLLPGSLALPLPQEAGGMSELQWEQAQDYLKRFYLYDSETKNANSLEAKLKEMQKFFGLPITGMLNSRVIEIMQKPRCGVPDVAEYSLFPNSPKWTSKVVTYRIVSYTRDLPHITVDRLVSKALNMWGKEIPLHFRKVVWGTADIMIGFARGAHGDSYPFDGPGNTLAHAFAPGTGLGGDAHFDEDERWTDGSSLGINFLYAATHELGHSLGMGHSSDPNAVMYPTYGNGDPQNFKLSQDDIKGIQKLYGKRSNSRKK

[7] = target: Macrophage metalloelastase (Homo sapiens, UniProt P39900); experiment: Inhibition of MMP12 (unknown origin)
Macrophage metalloelastase, sequence (P39900 whole entry): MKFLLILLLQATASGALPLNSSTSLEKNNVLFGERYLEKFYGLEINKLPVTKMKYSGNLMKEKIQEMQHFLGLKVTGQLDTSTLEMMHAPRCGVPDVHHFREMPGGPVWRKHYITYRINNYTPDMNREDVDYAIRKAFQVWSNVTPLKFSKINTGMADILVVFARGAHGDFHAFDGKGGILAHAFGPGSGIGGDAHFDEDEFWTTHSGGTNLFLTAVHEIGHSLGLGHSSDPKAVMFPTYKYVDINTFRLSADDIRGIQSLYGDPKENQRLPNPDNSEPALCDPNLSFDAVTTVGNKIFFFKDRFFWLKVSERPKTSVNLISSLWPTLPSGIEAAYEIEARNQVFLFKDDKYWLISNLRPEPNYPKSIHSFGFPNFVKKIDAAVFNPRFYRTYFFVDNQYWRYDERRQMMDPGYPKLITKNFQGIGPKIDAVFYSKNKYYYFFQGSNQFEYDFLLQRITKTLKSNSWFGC

[8] = target: Matrix metalloproteinase-14 (Homo sapiens, UniProt P50281); experiment: Inhibition of MMP14 (unknown origin)
[9] = target: T3, Matrix metalloproteinase-17 (Homo sapiens, UniProt Q9ULZ9); experiment: Inhibition of MMP17 (unknown origin)
T3 sequence (Q9ULZ9 whole entry): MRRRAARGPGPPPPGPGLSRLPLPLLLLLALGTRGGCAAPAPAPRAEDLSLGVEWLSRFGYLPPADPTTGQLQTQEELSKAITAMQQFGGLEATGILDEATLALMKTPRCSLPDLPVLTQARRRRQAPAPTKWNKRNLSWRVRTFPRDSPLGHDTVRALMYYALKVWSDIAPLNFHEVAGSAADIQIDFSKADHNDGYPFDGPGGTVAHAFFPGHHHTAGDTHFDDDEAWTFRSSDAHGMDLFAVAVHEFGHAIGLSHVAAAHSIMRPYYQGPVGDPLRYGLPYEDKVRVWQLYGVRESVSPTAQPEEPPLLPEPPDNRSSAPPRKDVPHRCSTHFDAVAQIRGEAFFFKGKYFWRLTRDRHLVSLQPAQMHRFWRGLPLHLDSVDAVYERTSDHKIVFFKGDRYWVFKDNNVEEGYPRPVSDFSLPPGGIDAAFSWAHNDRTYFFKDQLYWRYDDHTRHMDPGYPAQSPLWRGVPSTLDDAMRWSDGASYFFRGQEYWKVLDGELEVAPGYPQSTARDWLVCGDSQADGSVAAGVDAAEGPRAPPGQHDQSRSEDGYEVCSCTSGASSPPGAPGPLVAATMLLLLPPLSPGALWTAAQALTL

Stromelysin-1, sequence (P08254 whole entry): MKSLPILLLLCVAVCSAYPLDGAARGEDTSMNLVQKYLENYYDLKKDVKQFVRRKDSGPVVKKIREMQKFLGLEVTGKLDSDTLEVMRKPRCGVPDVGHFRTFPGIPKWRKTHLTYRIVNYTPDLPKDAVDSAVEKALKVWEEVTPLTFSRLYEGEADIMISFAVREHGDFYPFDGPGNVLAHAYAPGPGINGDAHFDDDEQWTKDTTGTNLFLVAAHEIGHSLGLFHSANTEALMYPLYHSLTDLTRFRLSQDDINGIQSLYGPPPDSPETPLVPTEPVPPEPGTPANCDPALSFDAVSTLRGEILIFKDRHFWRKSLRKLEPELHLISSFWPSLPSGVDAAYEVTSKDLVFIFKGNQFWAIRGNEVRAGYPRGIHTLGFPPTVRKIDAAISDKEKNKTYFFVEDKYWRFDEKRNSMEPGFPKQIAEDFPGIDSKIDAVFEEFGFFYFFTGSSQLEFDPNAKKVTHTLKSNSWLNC
Neutrophil collagenase, sequence (P22894 whole entry): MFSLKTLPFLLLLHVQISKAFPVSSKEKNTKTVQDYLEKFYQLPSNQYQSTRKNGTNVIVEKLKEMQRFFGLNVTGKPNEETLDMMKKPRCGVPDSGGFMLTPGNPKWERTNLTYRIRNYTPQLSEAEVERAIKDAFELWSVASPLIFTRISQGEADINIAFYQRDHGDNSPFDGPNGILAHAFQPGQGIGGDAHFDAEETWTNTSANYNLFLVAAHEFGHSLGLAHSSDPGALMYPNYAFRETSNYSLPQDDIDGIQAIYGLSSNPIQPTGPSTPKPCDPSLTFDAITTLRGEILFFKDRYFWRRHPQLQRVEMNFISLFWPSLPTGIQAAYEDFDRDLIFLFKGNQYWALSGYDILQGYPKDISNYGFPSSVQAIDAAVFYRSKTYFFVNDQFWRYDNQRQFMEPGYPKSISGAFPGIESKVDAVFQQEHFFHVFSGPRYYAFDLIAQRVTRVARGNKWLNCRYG

SMILES	IC50 [1]	IC50 [2]	Ki [3]	IC50 [3]	IC50 [4]	IC50 [5]	IC50 [6]	IC50 [7]	IC50 [8]	IC50 [9]
O=C1N=C(O)NC(=O)[C@@]1(c1ccccc1)N1CCC(CCO)CC1	1700 nM	30000 nM	–	–	–	–	–	–	–	–
O=C(CC1(S(=O)(=O)c2ccc(Oc3ccccc3)cc2)CCOCC1)NO	–	–	23 nM	–	–	–	–	–	–	–
CC#CCOc1ccc(Oc2ccc(S(=O)(=O)NC(C(=O)NO)C(C)C)cc2)cc1 (stereo not drawn)	–	–	–	40 nM	–	–	–	–	–	–
CN(C)c1ccc(-c2cn(-c3ccc(S(=O)(=O)C4(C(=O)NO)CCNCC4)cc3)nn2)cc1	–	–	–	–	1.7 nM	43.9 nM	–	–	–	–
CC(C)N(C)c1ccc(-c2cn(-c3ccc(S(=O)(=O)C4(C(=O)NO)CCNCC4)cc3)nn2)cc1	–	–	–	–	3 nM	346 nM	–	–	–	–
O=C(OCc1ccccc1)c1cn2c(=O)n(Cc3ccccc3)c(=O)cc2s1	> 30000 nM	> 30000 nM	–	> 30000 nM	> 30000 nM	> 30000 nM	> 30000 nM	> 30000 nM	> 30000 nM	> 30000 nM
Cn1c(=O)n(Cc2ccc(C(=O)O)cc2)c(=O)c2cc(C#CCc3ccccc3)ccc21	> 30000 nM	> 30000 nM	–	> 30000 nM	> 30000 nM	> 30000 nM	> 30000 nM	> 30000 nM	> 30000 nM	> 30000 nM
NC(=O)CC1CCCc2sc3nc(C(=O)NCc4ccc5c(c4)NC(=O)CO5)[nH]c(=O)c3c21 (racemic)	–	> 2500 nM	–	> 2500 nM	> 2500 nM	> 2500 nM	> 2500 nM	> 2500 nM	> 2500 nM	–
